From US8716309B2, “Pharmaceutical composition comprising pyridone derivatives” (priority 2011, dated 2014)

What was measured:
[1] = test system: Male ICR mice; assay: Novel Object Recognition Test (NORT), MK-801 induced amnesia; format: in vivo; settings: Mus musculus; po; dose at which the relative RI is given; doses 0.03˜3 mg/kg; read-out: NORT MED
From the text: A NORT, which was first introduced by Ennaceur and Delacour, is a cognitive memory test for measuring whether rats are able to remember objects with which they have had previous experience based on the nature of rats, i.e., preference to explore novel objects [Ennaceur A and Delacour J (1988) A new one-trial test for neurobiological studies of memory in rats. 1; Behavioral data. Behavioral Brain Res. 31; 47-59]. This NOR test is a popular experimental method for measuring changes in memory of objects in rodents administered with either an amnesia-inducing drug or other general drugs, by which memory recovery efficacy of a test drug in the rodents administered with the amnesia-inducing drug is explored. In the present example, the test was performed in accord with the description of Bevins and Besheer [Bevins, R. A. & Besheer, J. Object recognition in rats and mice; a one-trial non-matching-to-sample learning task to study ‘recognition memory’. Nat. Protoc. 2006; 1(3); 1306-11. (2006)]. Male ICR mice (available from Orient Bio Inc., Korea) weighing from about 20 g to about 32 g were orally administered a test compound dissolved in a 30% PEG at doses of 0.03˜3 mg/kg and 10 ml/kg body weight. 30 minutes after the administration, MK-801 (available from Sigma) dissolved in saline was subcutaneously administered at doses of 0.1 mg/kg and 10 ml/kg body weight to induce amnesia. About 30 minutes after the administration of MK-801, the mice were allowed to explore a rectangular stainless steel pillar or a circular plastic pillar which was previously placed in a box for about 5 minutes. About 24 hours after the exploration, one of the two objects previously presented was replaced with a new one (i.e., to include one rectangular stainless steel pillar and one circular plastic pillar), the times they took to explore were measured for about 5 minutes. A recognition index (RI) was defined as: [(Exploration time for novel object in test compound group/Exploration time for all objects in test compound group)/(Exploration time for novel object in MK801 group/Exploration time for all objects in MK801 group)×100].
Table 2 below presents relative RIs of the compounds at a minimal dose […].

[2] = biological target: human α7 nAChR (Homo sapiens, UniProt P36544); assay: cell-based; settings: EC50 of human α7nAChR(nM), HEK293T/17 cells transfected with human α7 nAChR; PNU-120596 added; relative to epibatidine 1 μM positive control
Sequence of human α7 nAChR (P36544 23-502): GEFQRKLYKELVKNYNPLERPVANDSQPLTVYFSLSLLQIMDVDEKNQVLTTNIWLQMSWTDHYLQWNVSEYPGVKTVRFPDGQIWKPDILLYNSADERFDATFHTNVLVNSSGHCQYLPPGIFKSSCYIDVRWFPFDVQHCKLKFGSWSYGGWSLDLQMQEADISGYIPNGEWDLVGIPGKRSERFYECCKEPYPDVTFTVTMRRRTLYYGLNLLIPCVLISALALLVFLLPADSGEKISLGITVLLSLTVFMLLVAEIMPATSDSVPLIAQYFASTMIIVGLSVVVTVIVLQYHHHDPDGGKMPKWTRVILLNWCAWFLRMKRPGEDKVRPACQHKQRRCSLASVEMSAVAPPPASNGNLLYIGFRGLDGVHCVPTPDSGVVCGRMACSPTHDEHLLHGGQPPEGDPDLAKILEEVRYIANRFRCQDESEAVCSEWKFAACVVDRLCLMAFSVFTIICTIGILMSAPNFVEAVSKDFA

## Cc1ccc(-n2cc(C(=O)NC3CN4CCC3CC4)ccc2=O)c(Cl)c1 (centres unmarked) [Example 33, N-(1-azabicyclo[2.2.2]octan-3-yl)-1-(2-chloro-4-methylphenyl)-6-oxo-3-pyridinecarboxamide]
[1]
  minimal effective dose: 1 mg/kg
[2]
  EC50: 100 to 500 nM

## O=C(NC1CN2CCC1CC2)c1ccc(=O)n(-c2ccc(Cl)cc2Cl)c1 (centres unmarked) [Example 25, N-(1-azabicyclo[2.2.2]octan-3-yl)-1-(2,4-dichlorophenyl)-6-oxo-3-pyridinecarboxamide]
[1]
  minimal effective dose: 3 mg/kg
[2]
  EC50: 500 to 1000 nM

## Cc1ccc(-c2ccc(-n3cc(C(=O)NC4CN5CCC4CC5)ccc3=O)c(Cl)c2)s1 (centres unmarked) [Example 109, N-(1-azabicyclo[2.2.2]octan-3-yl)-1-[2-chloro-4-(5-methyl-2-thiophenyl)phenyl]-6-oxo-3-pyridinecarboxamide]
[1]
  minimal effective dose: 3 mg/kg
[2]
  EC50: 100 to 500 nM

## O=C(NC1CN2CCC1CC2)c1ccc(=O)n(-c2ccccc2-c2nccs2)c1 (centres unmarked) [Example 104, N-(1-azabicyclo[2.2.2]octan-3-yl)-6-oxo-1-[2-(2-thiazolyl)phenyl]-3-pyridinecarboxamide]
[1]
  minimal effective dose: 3 mg/kg
[2]
  EC50: 100 to 500 nM

## O=C(NC1CN2CCC1CC2)c1ccc(=O)n(-c2ccc(Cl)cc2-c2nccs2)c1 (centres unmarked) [Example 105, N-(1-azabicyclo[2.2.2]octan-3-yl)-1-[4-chloro-2-(2-thiazolyl)phenyl]-6-oxo-3-pyridine carboxamide]
[1]
  minimal effective dose: 0.3 mg/kg
[2]
  EC50: 500 to 1000 nM

## O=C(N[C@@H]1CN2CCC1CC2)c1ccc(=O)n(-c2ccc(Cl)cc2Cl)c1 [Example 27, N-[(3S)-1-azabicyclo[2.2.2]octan-3-yl)-1-(2,4-dichlorophenyl)-6-oxo-3-pyridinecarboxamide]
[1]
  minimal effective dose: 1 mg/kg
[2]
  EC50: > 1000 nM

## COc1ccc(-n2cc(C(=O)NC3CN4CCC3CC4)ccc2=O)c(SC)c1 (centres unmarked) [Example 84, N-(1-azabicyclo[2.2.2]octan-3-yl)-1-[4-methoxy-2-(methylthio)phenyl]-6-oxo-3-pyridinecarboxamide]
[1]
  minimal effective dose: 0.3 mg/kg
[2]
  EC50: < 100 nM

## O=C(N[C@H]1CN2CCC1CC2)c1ccc(=O)n(-c2ccc(Cl)cc2Cl)c1 [Example 26, N-[(3R)-1-azabicyclo[2.2.2]octan-3-yl)-1-(2,4-dichlorophenyl)-6-oxo-3-pyridinecarboxamide]
[1]
  minimal effective dose: 1 mg/kg
[2]
  EC50: 100 to 500 nM

## CSc1cc(C)ccc1-n1cc(C(=O)N[C@@H]2CN3CCC2CC3)ccc1=O [Example 91, N-[(3S)-1-azabicyclo[2.2.2]octan-3-yl]-1-[4-methyl-2-(methylthio)phenyl]-6-oxo-3-pyridinecarboxamide]
[1]
  minimal effective dose at 3 mg/kg: 3 mg/kg
[2]
  EC50: 100 to 500 nM

## Cc1ccc(-c2ccccc2-n2cc(C(=O)NC3CN4CCC3CC4)ccc2=O)s1 (centres unmarked) [Example 111, N-(1-azabicyclo[2.2.2]octan-3-yl)-1-[2-(5-methyl-2-thiophenyl)phenyl]-6-oxo-3-pyridinecarboxamide]
[2]
  EC50: 100 to 500 nM

## O=C(NC1CN2CCC1CC2)c1ccc(=O)n(-c2ccc(-c3ccc(Cl)cc3)cc2)c1 (centres unmarked) [Example 67, N-(1-azabicyclo[2.2.2]octan-3-yl)-1-[4-(4-chlorophenyl)phenyl]-6-oxo-3-pyridinecarboxamide]
[2]
  EC50: 500 to 1000 nM

## Cc1ccc(Oc2ccc(-n3cc(C(=O)NC4CN5CCC4CC5)ccc3=O)cc2)cc1 (centres unmarked) [Example 72, N-(1-azabicyclo[2.2.2]octan-3-yl)-1-[4-(4-methylphenoxy)phenyl]-6-oxo-3-pyridinecarboxamide]
[2]
  EC50: 100 to 500 nM

## O=C(NC1CN2CCC1CC2)c1ccc(=O)n(-c2ccc(-c3ccccc3)cc2Cl)c1 (centres unmarked) [Example 70, N-(1-azabicyclo[2.2.2]octan-3-yl)-1-(2-chloro-4-phenylphenyl)-6-oxo-3-pyridinecarboxamide]
[2]
  EC50: 100 to 500 nM

## O=C(NC1CN2CCC1CC2)c1ccc(=O)n(-c2ccc(OC(F)(F)F)cc2Cl)c1 (centres unmarked) [Example 57, N-(1-azabicyclo[2.2.2]octan-3-yl)-1-[2-chloro-4-(trifluoromethoxy)phenyl]-6-oxo-3-pyridinecarboxamide]
[2]
  EC50: 100 to 500 nM

## CSc1ccc(C(F)(F)F)cc1-n1cc(C(=O)NC2CN3CCC2CC3)ccc1=O (centres unmarked) [Example 83, N-(1-azabicyclo[2.2.2]octan-3-yl)-1-[2-(methylthio)-5-(trifluoromethyl)phenyl]-6-oxo-3-pyridinecarboxamide]
[2]
  EC50: 500 to 1000 nM

## CS(=O)(=O)c1ccc(-n2cc(C(=O)NC3CN4CCC3CC4)ccc2=O)cc1 (centres unmarked) [Example 101, N-(1-azabicyclo[2.2.2]octan-3-yl)-1-(4-methylsulfonylphenyl)-6-oxo-3-pyridinecarboxamide]
[2]
  EC50: 100 to 500 nM

## Cc1ccc(-n2cc(C(=O)NC3CN4CCC3CC4)ccc2=O)c(Cl)c1 (centres unmarked) [Example 29, N-(1-azabicyclo[2.2.2]octan-3-yl)-1-(2-chloro-4-methylphenyl)-6-oxo-3-pyridinecarboxamide]
[2]
  EC50: > 1000 nM

## CC(C)c1ccc(-n2cc(C(=O)NC3CN4CCC3CC4)ccc2=O)cc1 (centres unmarked) [Example 17, N-(1-azabicyclo[2.2.2]octan-3-yl)-6-oxo-1-(4-propan-2-ylphenyl)-3-pyridinecarboxamide]
[2]
  EC50: 500 to 1000 nM

## CC(C)(C)c1ccc(-n2cc(C(=O)NC3CN4CCC3CC4)ccc2=O)c(Cl)c1 (centres unmarked) [Example 36, N-(1-azabicyclo[2.2.2]octan-3-yl)-1-(4-tert-butyl-2-chlorophenyl)-6-oxo-3-pyridinecarboxamide]
[2]
  EC50: 100 to 500 nM

## CSc1cc(Cl)ccc1-n1cc(C(=O)NC2CN3CCC2CC3)ccc1=O (centres unmarked) [Example 86, N-(1-azabicyclo[2.2.2]octan-3-yl)-1-[4-chloro-2-(methylthio)phenyl]-6-oxo-3-pyridinecarboxamide]
[1]
  minimal effective dose: 0.3 mg/kg
[2]
  EC50: < 100 nM

## CSc1ccccc1-n1cc(C(=O)N[C@H]2CN3CCC2CC3)ccc1=O [Example 78, N-[(3R)-1-azabicyclo[2.2.2]octan-3-yl]-1-[2-(methylthio)phenyl]-6-oxo-3-pyridinecarboxamide]
[2]
  EC50: < 100 nM

## CCc1ccc(-n2cc(C(=O)NC3CN4CCC3CC4)ccc2=O)c(SC)c1 (centres unmarked) [Example 98, N-(1-azabicyclo[2.2.2]octan-3-yl)-1-[4-ethyl-2-(methylthio)phenyl]-6-oxo-3-pyridinecarboxamide]
[2]
  EC50: < 100 nM

## COc1ccc(Cl)cc1-n1cc(C(=O)NC2CN3CCC2CC3)ccc1=O (centres unmarked) [Example 56, N-(1-azabicyclo[2.2.2]octan-3-yl)-1-(5-chloro-2-methoxyphenyl)-6-oxo-3-pyridinecarboxamide]
[2]
  EC50: 500 to 1000 nM

## CSc1cc(C)ccc1-n1cc(C(=O)NC2CN3CCC2CC3)ccc1=O (centres unmarked) [Example 89, N-(1-azabicyclo[2.2.2]octan-3-yl)-1-[4-methyl-2-(methylthio)phenyl]-6-oxo-3-pyridinecarboxamide]
[1]
  minimal effective dose: 0.03 mg/kg
[2]
  EC50: < 100 nM

## O=C(NC1CN2CCC1CC2)c1ccc(=O)n(-c2ccccc2)c1 (centres unmarked) [Example 1, N-(1-azoniabicyclo[2.2.2]octan-3-yl)-6-oxo-1-phenyl-3-pyridinecarboxamide]
[2]
  EC50: > 1000 nM

## O=C(NC1CN2CCC1CC2)c1ccc(=O)n(-c2ccc(Cl)cc2)c1 (centres unmarked) [Example 4, N-(1-azabicyclo[2.2.2]octan-3-yl)-1-(4-chlorophenyl)-6-oxo-3-pyridinecarboxamide]
[1]
  minimal effective dose at 3 mg/kg: 3 mg/kg
[2]
  EC50: > 1000 nM
